Measurements taken from patent US9717748B2, “Compositions and methods for treating an infection” (CMPD LICENSING, LLC, priority 2015, dated 2017).

Experiments:
Aspergillus flavus = test: Expected efficacy of antifungal agents
Aspergillus fumigatus = test: Expected efficacy of antifungal agents
Cryptococcus neoformans = test: Expected efficacy of antifungal agents
Providencia rettgeri = test: Expected efficacy of antibiotic agents; details: Gram: neg
[1] = test system: Haemophilus parainfluenzae; test: Expected efficacy of antibiotic agents; details: Gram: neg
[2] = test system: Klebsiella (Calymmato-bacterium) granulomatis; test: Expected efficacy of antibiotic agents; details: Gram: neg
Providencia stuartii = test: Expected efficacy of antibiotic agents; details: Gram: neg
Legionella pneumophila = details: Gram: neg
Acinetobacter baumannii = test: Expected efficacy of antibiotic agents; details: Gram: neg
Moraxella catarrhalis = test: Expected efficacy of antibiotic agents; details: Gram: neg
Chlamydia trachomatis = test: Expected efficacy of antibiotic agents; details: Gram: n/a
Brucella species = details: Gram: neg
Chlamydia psittaci = details: Gram: n/a
Francisella tularensis = details: Gram: neg
Serratia marcescens = test: Expected efficacy of antibiotic agents; details: Gram: neg
Acinetobacter lwoffii = test: Expected efficacy of antibiotic agents; details: Gram: neg
Yersinia pestis = details: Gram: neg
Enterococcus faecalis = test: Expected efficacy of antibiotic agents; details: Gram: pos
Enterococcus faecium = test: Expected efficacy of antibiotic agents; details: Gram: pos
Citrobacter freundii = test: Expected efficacy of antibiotic agents; details: Gram: neg
Chlamydia pneumoniae = test: Expected efficacy of antibiotic agents; details: Gram: n/a
Citrobacter diversus = test: Expected efficacy of antibiotic agents; details: Gram: neg
[3] = test system: Staphylococcus epidermidis; test: Expected efficacy of antibiotic agents; details: Gram: pos
Haemophilus ducreyi = test: Expected efficacy of antibiotic agents; details: Gram: neg
Proteus vulgaris = test: Expected efficacy of antibiotic agents; details: Gram: neg
Proteus mirabilis = test: Expected efficacy of antibiotic agents; details: Gram: neg
Campylobacter jejuni = test: Expected efficacy of antibiotic agents; details: Gram: neg
Morganella morganii = test: Expected efficacy of antibiotic agents; details: Gram: neg
Pseudomonas aeruginosa = test: Expected efficacy of antibiotic agents; details: Gram: neg
Enterobacter sakazakii = test: Expected efficacy of antibiotic agents; details: Gram: neg
[4] = test system: Staphylococcus aureus (MSSA); test: Expected efficacy of antibiotic agents; details: Gram: pos
Mycoplasma pneumoniae = test: Expected efficacy of antibiotic agents; details: Gram: n/a
Corynebacterium jeikeium = test: Expected efficacy of antibiotic agents; details: Gram: pos
Diphtheroids = test: Expected efficacy of antibiotic agents; details: Gram: pos
Streptococcus pyogenes = test: Expected efficacy of antibiotic agents; details: Gram: pos
Shigella dysenteriae = test: Expected efficacy of antibiotic agents; details: Gram: neg
Bordetella pertussis = test: Expected efficacy of antibiotic agents; details: Gram: neg
[5] = test system: Methicillin resistant staphaureus (MRSA); test: Expected efficacy of antibiotic agents; details: Gram: pos
Shigella flexneri = test: Expected efficacy of antibiotic agents; details: Gram: neg
Bacteroides fragilis = test: Expected efficacy of antibiotic agents; details: Gram: anaer
Peptostreptococcus = test: Expected efficacy of antibiotic agents; details: Gram: pos
Rickettsiae = details: Gram: neg
Klebsiella pneumoniae = test: Expected efficacy of antibiotic agents; details: Gram: neg
[6] = test system: Acinetobacter calcoaceticus; test: Expected efficacy of antibiotic agents; details: Gram: neg
Salmonella typhi = test: Expected efficacy of antibiotic agents; details: Gram: neg
[7] = test system: Corynebacterium urealyticum; test: Expected efficacy of antibiotic agents; details: Gram: pos
Neisseria gonorrhoeae = test: Expected efficacy of antibiotic agents; details: Gram: neg
Clostridium difficile = test: Expected efficacy of antibiotic agents; details: Gram: anaer
[8] = test system: Viridans group streptococci; test: Expected efficacy of antibiotic agents; details: Gram: pos
Vibrio cholerae = test: Expected efficacy of antibiotic agents; details: Gram: neg
Streptococcus agalactiae = test: Expected efficacy of antibiotic agents; details: Gram: pos
Enterobacter cloacae = test: Expected efficacy of antibiotic agents; details: Gram: neg
Shigella sonnei = test: Expected efficacy of antibiotic agents; details: Gram: neg
Clostridium perfringens = details: Gram: anaer
Escherichia coli = test: Expected efficacy of antibiotic agents; details: Gram: neg
Klebsiella oxytoca = test: Expected efficacy of antibiotic agents; details: Gram: neg
Pseudomonas fluorescens = test: Expected efficacy of antibiotic agents; details: Gram: neg
Enterobacter aerogenes = test: Expected efficacy of antibiotic agents; details: Gram: neg

In the case of `OC(Cn1cncn1)(Cn1cncn1)c1ccc(F)cc1F` [Fluconazole], the “Expected efficacy against Aspergillus flavus” value (Aspergillus flavus) was “yes”, the “Expected efficacy against Coccidioides immitis” value (Coccidioides immitis) was “yes” and the “Expected efficacy against Aspergillus fumigatus” value (Aspergillus fumigatus) was “yes”. For the same compound, the “Expected efficacy against Cryptococcus neoformans” value (Cryptococcus neoformans) was “yes”.

With `C[C@H]1c2cccc(O)c2C(=O)C2=C(O)[C@]3(O)C(=O)C(C(N)=O)=C(O)[C@@H](N(C)C)[C@@H]3[C@@H](O)[C@@H]21` [Doxycyline] the “Expected efficacy against Providencia rettgeri” value (Providencia rettgeri) was “no”, the “Expected efficacy against Haemophilus parainfluenzae” value [1] was “yes” and the “Expected efficacy against Klebsiella (Calymmato-bacterium) granulomatis” value [2] was “yes”. The “Expected efficacy against Providencia stuartii” value (Providencia stuartii) was “no”, the “Expected efficacy against Legionella pneumophila” value (Legionella pneumophila) was “yes” and the “Expected efficacy against Acinetobacter baumannii” value (Acinetobacter baumannii) was “no”. The “Expected efficacy against Moraxella catarrhalis” value (Moraxella catarrhalis) was “yes”, the “Expected efficacy against Chlamydia trachomatis” value (Chlamydia trachomatis) was “yes” and the “Expected efficacy against Brucella species” value (Brucella species) was “yes”. The “Expected efficacy against Chlamydia psittaci” value (Chlamydia psittaci) was “yes”, the “Expected efficacy against Francisella tularensis” value (Francisella tularensis) was “yes” and the “Expected efficacy against Serratia marcescens” value (Serratia marcescens) was “no”. The “Expected efficacy against Acinetobacter lwoffii” value (Acinetobacter lwoffii) was “no”, the “Expected efficacy against Yersinia pestis” value (Yersinia pestis) was “yes” and the “Expected efficacy against Enterococcus faecalis” value (Enterococcus faecalis) was “no”. The “Expected efficacy against Enterococcus faecium” value (Enterococcus faecium) was “no”, the “Expected efficacy against Citrobacter freundii” value (Citrobacter freundii) was “no” and the “Expected efficacy against Chlamydia pneumoniae” value (Chlamydia pneumoniae) was “yes”. The “Expected efficacy against Citrobacter diversus” value (Citrobacter diversus) was “no”, the “Expected efficacy against Staphylococcus epidermidis” value [3] was “yes” and the “Expected efficacy against Haemophilus ducreyi” value (Haemophilus ducreyi) was “yes”. For the same compound, the “Expected efficacy against Proteus vulgaris” value (Proteus vulgaris) was “no”, the “Expected efficacy against Proteus mirabilis” value (Proteus mirabilis) was “no” and the “Expected efficacy against Campylobacter jejuni” value (Campylobacter jejuni) was “yes”. The “Expected efficacy against Morganella morganii” value (Morganella morganii) was “no” and the “Expected efficacy against Pseudomonas aeruginosa” value (Pseudomonas aeruginosa) was “no”.

With `CO/N=C(\C(=O)N[C@@H]1C(=O)N2C(C(=O)O)=C(CSc3nc(=O)c(=O)[nH]n3C)CS[C@H]12)c1csc(N)n1` [Ceftriaxone] the “Expected efficacy against Enterobacter sakazakii” value (Enterobacter sakazakii) was “yes”, the “Expected efficacy against Staphylococcus aureus (MSSA)” value (shortened to “Expected efficacy … (MSSA)”) [4] was “yes” and the “Expected efficacy against Mycoplasma pneumoniae” value (Mycoplasma pneumoniae) was “no”. For the same compound, the “Expected efficacy against Providencia rettgeri” value (Providencia rettgeri) was “yes”, the “Expected efficacy against Corynebacterium jeikeium” value (Corynebacterium jeikeium) was “no” and the “Expected efficacy against Diphtheroids” value (Diphtheroids) was “no”. For the same compound, the “Expected efficacy against Haemophilus parainfluenzae” value [1] was “yes”, the “Expected efficacy against Streptococcus pyogenes” value (Streptococcus pyogenes) was “yes” and the “Expected efficacy against Klebsiella (Calymmato-bacterium) granulomatis” value [2] was “yes”. For the same compound, the “Expected efficacy against Shigella dysenteriae” value (Shigella dysenteriae) was “yes”, the “Expected efficacy against Bordetella pertussis” value (Bordetella pertussis) was “no” and the “Expected efficacy against Providencia stuartii” value (Providencia stuartii) was “yes”. The “Expected efficacy against Legionella pneumophila” value (Legionella pneumophila) was “no”, the “Expected efficacy against Methicillin resistant staphaureus (MRSA)” value (“Expected efficacy … (MRSA)” below) [5] was “no” and the “Expected efficacy against Acinetobacter baumannii” value (Acinetobacter baumannii) was “no”. The “Expected efficacy against Moraxella catarrhalis” value (Moraxella catarrhalis) was “yes”, the “Expected efficacy against Shigella flexneri” value (Shigella flexneri) was “yes” and the “Expected efficacy against Chlamydia trachomatis” value (Chlamydia trachomatis) was “no”. The “Expected efficacy against Bacteroides fragilis” value (Bacteroides fragilis) was “yes”, the “Expected efficacy against Peptostreptococcus” value (Peptostreptococcus) was “yes” and the “Expected efficacy against Rickettsiae” value (Rickettsiae) was “no”. For the same compound, the “Expected efficacy against Chlamydia psittaci” value (Chlamydia psittaci) was “no”, the “Expected efficacy against Francisella tularensis” value (Francisella tularensis) was “no” and the “Expected efficacy against Klebsiella pneumoniae” value (Klebsiella pneumoniae) was “yes”. The “Expected efficacy against Acinetobacter calcoaceticus” value [6] was “no”, the “Expected efficacy against Acinetobacter lwoffii” value (Acinetobacter lwoffii) was “no” and the “Expected efficacy against Salmonella typhi” value (Salmonella typhi) was “yes”. The “Expected efficacy against Yersinia pestis” value (Yersinia pestis) was “no”, the “Expected efficacy against Enterococcus faecalis” value (Enterococcus faecalis) was “no” and the “Expected efficacy against Enterococcus faecium” value (Enterococcus faecium) was “no”. The “Expected efficacy against Citrobacter freundii” value (Citrobacter freundii) was “yes”, the “Expected efficacy against Chlamydia pneumoniae” value (Chlamydia pneumoniae) was “no” and the “Expected efficacy against Staphylococcus epidermidis” value [3] was “yes”. For the same compound, the “Expected efficacy against Corynebacterium urealyticum” value [7] was “no”, the “Expected efficacy against Haemophilus ducreyi” value (Haemophilus ducreyi) was “yes” and the “Expected efficacy against Neisseria gonorrhoeae” value (Neisseria gonorrhoeae) was “yes”. For the same compound, the “Expected efficacy against Clostridium difficile” value (Clostridium difficile) was “no”, the “Expected efficacy against Proteus mirabilis” value (Proteus mirabilis) was “yes” and the “Expected efficacy against Viridans group streptococci” value [8] was “yes”. For the same compound, the “Expected efficacy against Vibrio cholerae” value (Vibrio cholerae) was “no”, the “Expected efficacy against Streptococcus agalactiae” value (Streptococcus agalactiae) was “yes” and the “Expected efficacy against Enterobacter cloacae” value (Enterobacter cloacae) was “yes”. For the same compound, the “Expected efficacy against Campylobacter jejuni” value (Campylobacter jejuni) was “no”, the “Expected efficacy against Shigella sonnei” value (Shigella sonnei) was “yes” and the “Expected efficacy against Pseudomonas aeruginosa” value (Pseudomonas aeruginosa) was “no”.

In the case of Azithromycin, the “Expected efficacy against Enterobacter sakazakii” value (Enterobacter sakazakii) was “no”, the “Expected efficacy … (MSSA)” value [4] was “yes” and the “Expected efficacy against Mycoplasma pneumoniae” value (Mycoplasma pneumoniae) was “yes”. For the same compound, the “Expected efficacy against Providencia rettgeri” value (Providencia rettgeri) was “no”, the “Expected efficacy against Clostridium perfringens” value (Clostridium perfringens) was “no” and the “Expected efficacy against Escherichia coli” value (Escherichia coli) was “no”. For the same compound, the “Expected efficacy against Corynebacterium jeikeium” value (Corynebacterium jeikeium) was “no”, the “Expected efficacy against Streptococcus pyogenes” value (Streptococcus pyogenes) was “yes” and the “Expected efficacy against Klebsiella (Calymmato-bacterium) granulomatis” value [2] was “no”. For the same compound, the “Expected efficacy against Providencia stuartii” value (Providencia stuartii) was “no”, the “Expected efficacy against Legionella pneumophila” value (Legionella pneumophila) was “yes” and the “Expected efficacy … (MRSA)” value [5] was “no”. The “Expected efficacy against Acinetobacter baumannii” value (Acinetobacter baumannii) was “no”, the “Expected efficacy against Moraxella catarrhalis” value (Moraxella catarrhalis) was “yes” and the “Expected efficacy against Chlamydia trachomatis” value (Chlamydia trachomatis) was “yes”. The “Expected efficacy against Brucella species” value (Brucella species) was “no”, the “Expected efficacy against Bacteroides fragilis” value (Bacteroides fragilis) was “no” and the “Expected efficacy against Chlamydia psittaci” value (Chlamydia psittaci) was “yes”. The “Expected efficacy against Francisella tularensis” value (Francisella tularensis) was “no”, the “Expected efficacy against Klebsiella pneumoniae” value (Klebsiella pneumoniae) was “no” and the “Expected efficacy against Acinetobacter calcoaceticus” value [6] was “no”. For the same compound, the “Expected efficacy against Serratia marcescens” value (Serratia marcescens) was “no”, the “Expected efficacy against Acinetobacter lwoffii” value (Acinetobacter lwoffii) was “no” and the “Expected efficacy against Enterococcus faecalis” value (Enterococcus faecalis) was “no”. For the same compound, the “Expected efficacy against Enterococcus faecium” value (Enterococcus faecium) was “no”, the “Expected efficacy against Citrobacter freundii” value (Citrobacter freundii) was “no” and the “Expected efficacy against Chlamydia pneumoniae” value (Chlamydia pneumoniae) was “yes”. The “Expected efficacy against Klebsiella oxytoca” value (Klebsiella oxytoca) was “no”, the “Expected efficacy against Citrobacter diversus” value (Citrobacter diversus) was “no” and the “Expected efficacy against Staphylococcus epidermidis” value [3] was “yes”. For the same compound, the “Expected efficacy against Pseudomonas fluorescens” value (Pseudomonas fluorescens) was “no”, the “Expected efficacy against Enterobacter aerogenes” value (Enterobacter aerogenes) was “no” and the “Expected efficacy against Clostridium difficile” value (Clostridium difficile) was “no”. The “Expected efficacy against Proteus vulgaris” value (Proteus vulgaris) was “no”, the “Expected efficacy against Proteus mirabilis” value (Proteus mirabilis) was “no” and the “Expected efficacy against Streptococcus agalactiae” value (Streptococcus agalactiae) was “yes”. The “Expected efficacy against Enterobacter cloacae” value (Enterobacter cloacae) was “no”, the “Expected efficacy against Campylobacter jejuni” value (Campylobacter jejuni) was “yes” and the “Expected efficacy against Morganella morganii” value (Morganella morganii) was “no”. The “Expected efficacy against Pseudomonas aeruginosa” value (Pseudomonas aeruginosa) was “no”.

In the case of `O=C(O)c1cn(C2CC2)c2cc(N3CCNCC3)c(F)cc2c1=O` [Ciprofloxacin], the “Expected efficacy … (MSSA)” value [4] was “no”, the “Expected efficacy against Providencia rettgeri” value (Providencia rettgeri) was “yes” and the “Expected efficacy against Corynebacterium jeikeium” value (Corynebacterium jeikeium) was “no”. For the same compound, the “Expected efficacy against Haemophilus parainfluenzae” value [1] was “yes”, the “Expected efficacy against Shigella dysenteriae” value (Shigella dysenteriae) was “yes” and the “Expected efficacy against Providencia stuartii” value (Providencia stuartii) was “yes”. For the same compound, the “Expected efficacy against Legionella pneumophila” value (Legionella pneumophila) was “yes”, the “Expected efficacy … (MRSA)” value [5] was “no” and the “Expected efficacy against Moraxella catarrhalis” value (Moraxella catarrhalis) was “yes”. For the same compound, the “Expected efficacy against Shigella flexneri” value (Shigella flexneri) was “yes”, the “Expected efficacy against Bacteroides fragilis” value (Bacteroides fragilis) was “no” and the “Expected efficacy against Francisella tularensis” value (Francisella tularensis) was “yes”. The “Expected efficacy against Klebsiella pneumoniae” value (Klebsiella pneumoniae) was “yes”, the “Expected efficacy against Salmonella typhi” value (Salmonella typhi) was “yes” and the “Expected efficacy against Yersinia pestis” value (Yersinia pestis) was “yes”. For the same compound, the “Expected efficacy against Enterococcus faecium” value (Enterococcus faecium) was “no”, the “Expected efficacy against Citrobacter freundii” value (Citrobacter freundii) was “yes” and the “Expected efficacy against Chlamydia pneumoniae” value (Chlamydia pneumoniae) was “yes”. For the same compound, the “Expected efficacy against Staphylococcus epidermidis” value [3] was “yes”, the “Expected efficacy against Neisseria gonorrhoeae” value (Neisseria gonorrhoeae) was “yes” and the “Expected efficacy against Proteus mirabilis” value (Proteus mirabilis) was “yes”. For the same compound, the “Expected efficacy against Campylobacter jejuni” value (Campylobacter jejuni) was “yes”, the “Expected efficacy against Shigella sonnei” value (Shigella sonnei) was “yes” and the “Expected efficacy against Pseudomonas aeruginosa” value (Pseudomonas aeruginosa) was “yes”.
